Test results from patent publication US10288604B2, “Method for imaging cell using fluorescence-labeled sugar derivative having coumarin derivative bound thereto, and imaging agent” (HIROSAKI UNIVERSITY, priority 2012, dated 2019).
“Also recorded” adds a separate entry of the source.

Experiments:
[1] = tested on: neurons acutely dissociated from mouse midbrain substantia nigra pars reticulata; test: Application of fluorescent sugar derivatives to acutely dissociated normal neurons (confocal imaging of uptake); format: cell-based; settings: 20 μM 2-TRLG co-administered with 100 μM blue derivative, 37° C.
Protocol: This was conducted according to a method described in WO 2010/16587.
Living neurons were acutely dissociated from mouse midbrain substantia nigra pars reticulata, and to which a mixed solution containing 100 μM of 2-PBDG and 20 μM of 2-TRLG was administered at 37° C. for 5 minutes. FIGS. 1A to C represent confocal microscopic images taken immediately before this. A is a fluorescence image in blue wavelength region (Blue channel, wavelength range: 415-580 nm). The position of cells is recognized by autofluorescence. The fluorescence signal intensity is represented by pseudocolor. B is a fluorescence image in red wavelength region (Red channel, 580-740 nm). A and B were obtained both by simultaneous excitation using 405 nm Blue diode laser at an intensity of 60%, wherein photomultipliers (PMT) 1 and 2 were used respectively, and the detection sensitivity of PMT2 was raised higher than PMT1 so that the presence or absence of invasion of 2-TRLG can be detected in a sensitive manner. C is a view in which the bright field image is overlaid on the fluorescence images of A and B.
An experiment was conducted in the same manner as in Example 2.
FIGS. 2A to C represent confocal microscopic images immediately before administration of a mixed solution containing 100 μM of 2-PBLG and 20 μM of 2-TRLG at 37° C. to acutely dissociated neurons of mouse midbrain substantia nigra pars reticulata for 5 minutes.
FIG. 3 represents confocal microscopic images before and after administration of a mixed solution containing 100 μM of 2-HCDG and 20 μM of 2-TRLG at 37° C. for 3 minutes to neurons acutely dissociated from mouse midbrain substantia nigra pars reticulata. A and B are fluorescence images acquired before administration in Blue channel (415-580 nm) and Red channel (580-740 nm), respectively. The excitation wavelength is 405 nm. C is an image of differential interference (Differential Interference contrast, DIC). D is an overlay of the above-described images. E to H are the same as A to D, excepting that E to H are images acquired 4 minutes after initiation of washout of the fluorescence tracer solution after administration of the 2-HCDG+2-TRLG fluorescence tracer solution at 37° C. for 3 minutes. […] Since invasion of 2-TRLG into a cell is not observed, the plasma membrane of the neuron is thought to be maintained intactly.
Since the optimal excitation wavelength was as very low as 320 nm in this experiment, an image was acquired by Retiga-2000R CCD camera manufactured by Q-imaging via a custom-order filter constituted of an excitation filter (320 nm) (half width: 40 nm), a fluorescence filter (435 nm) (half width: 40 nm) and a dichroic mirror (409 nm), by a xenon lamp, using Nikon Ti-E real time deconvolution microscope.

[2] = tested on: tumor cell cluster composed of mouse insulinoma cells (MIN6); test: Imaging of tumor cell cluster composed of MIN6 cells (real time laser scanning confocal microscope); format: cell-based; settings: MIN6 cluster day 13
Protocol: A culture solution prepared by suspending MIN6 cells at a proportion of 10×10^4 cells/mL was dropped in an amount of 10 μL on a glass cover slip, then, allowed to adhere to the glass surface, and 3 mL of the culture solution was added and cultured. The half quantity of the culture solution was changed every three days.
Cryopreserved MIN6 cells (cells donated from Professor Miyazaki Junichi of Osaka University and cultured 5 to 8 passages) were subjected to culture according to an ordinary method, and cultured 7 to 9 passages which were used in experiments. The half amount of the culture solution was changed every two days.
NaCl 120.0 mM, KCl 4.75 mM, KH2 PO4 1.19 mM, MgSO4.7H2O 1.19 mM, CaCl2.2H2O 1 mM, NaHCO3 5.02 mM, D-Glucose 5.6 mM, HEPES 10 mM (adjusted to pH 7.35 with 1M NaOH). For inhibiting entrance and elimination of fluorescently labeled glucose via a gap junction/hemichannel, 0.1 mM Carbenoxolone (SIGMA #C4790) was added. The HEPES solution for image acquisition was used as a solution for preparing a 2-PBLG solution and as a solution for preparing a 2-PBLG/2-TRLG solution and 2-PBLG/2-NBDLG/2-TRLG solution.
A glass cover slip wherein MIN6 cells had been cultured was transferred into a HEPES solution for image acquisition in a perfusion chamber set on a universal stage (Leica 11600234) on a confocal laser scanning microscope (TCS SP5 available from Leica), and adhered gently and tightly to the glass surface at the bottom of the chamber. […] Further, there is an excellent effect that in the space sandwiched by the metal guides, the perfusion solution flows smoothly as a laminar flow and quick solution exchange is possible.
A perfusion solution feeding system is equipped with one 60 mL cylinder for a control solution and five 10 mL cylinders for agent feeding, which can be switched as needed by a magnetic valve to allow perfusion. In experiments according to the present invention, a 5.6 mM glucose-containing HEPES solution for image acquisition was administered using the 60 mL cylinder and a mixed solution of 2-PBLG/2-NBDLG/2-TRLG, a mixed solution of 2-PBDG/2-TRLG, or a mixed solution of 2-PBLG/2-TRLG was administered using one of the five 10 mL cylinders. As described below, to avoid generation of bubbles in the perfusion chamber, both the solutions were heated beforehand, combined in one tube before being introduced into the perfusion chamber, the flow rate thereof being controlled by a flow rate controller, then, heated again by an inline heater and fed to the perfusion chamber on the confocal microscope.
A laser scan confocal microscope (manufactured by Leica, TCS-SP5 system, microscope body is DMI6000 CS trino electromotive inverted microscope) was used in conventional mode. Regarding laser used, a 405 nm diode laser was used for excitation of 2-PBLG and 2-PBDG, excitation of a mixed solution of 2-PBLG (or 2-PBDG) and 2-TRLG with a single light source, or live staining of nucleus by DAPI. The irradiation intensity was appropriately adjusted in accordance with the fluorescent pigment used so as to obtain sufficient observation intensity by an acoustic optical polarization element (Acoustic Optical Tunable Filter, AOTF). 2-NBDLG and 2-TRLG were excited by 488 nm Argon laser. The scan speed was 200 Hz or 400 Hz.
In fluorescence detection, a photomultiplier detector (PMT) 1 was used for detection of blue fluorescence by 2-PBDG or 2-PBLG and images were acquired in a wavelength detection range set at 415-580 nm in the case of detection of bicolor of 2-PBLG/2-TRLG and in a wavelength detection range set at 415-500 nm in the case of detection of tricolor of 2-PBLG/2-NBDLG/2-TRLG. For detection of green fluorescence by 2-NBDLG, PMT2 (called green channel, the same shall apply hereinafter) was used in a wavelength detection range of 500-580 nm. For detection of red fluorescence by 2-TRLG, PMT3 (called red channel, the same shall apply hereinafter) was used in a wavelength detection range of 580-740 nm. […]

## 2-TexasRed-2-amino-2-deoxy-L-glucose [2-TRLG]
[1]
  fluorescence intensity in Red channel / invasion of 2-TRLG into a cell: did not increase; also recorded: scarcely increased; also recorded: not observed
[2]; mixed solution 100 μM 2-PBLG and 20 μM 2-TRLG, administered 5 minutes
  fluorescence of cells in the cell cluster 2 minutes after initiation of washout: invades into the cell having increased membrane permeability mainly present at the center of a cell cluster
[2]; mixed solution 100 μM 2-PBLG, 100 μM 2-NBDLG, 20 μM 2-TRLG
  fluorescence of cells in the cancer cell cluster 8 minutes after completion of administration: very weak red fluorescence
